In patent publication US20260248763A1 (BIO GENUINE (SHANGHAI) BIOTECH CO., LTD, priority 2023, published 2026):

Assays:
OTR = target: T1, OTR (Homo sapiens, UniProt P30559); assay: Ca2+ mobilization in cells stably expressing OTR (FLIPR, antagonist mode); format: cell-based; conditions: OTR/HEK293 stably transfected cell line
T1 construct: expressed in transfected cells; host or cells: OTR/HEK293 stably transfected cell line
T1 sequence (P30559 1-389): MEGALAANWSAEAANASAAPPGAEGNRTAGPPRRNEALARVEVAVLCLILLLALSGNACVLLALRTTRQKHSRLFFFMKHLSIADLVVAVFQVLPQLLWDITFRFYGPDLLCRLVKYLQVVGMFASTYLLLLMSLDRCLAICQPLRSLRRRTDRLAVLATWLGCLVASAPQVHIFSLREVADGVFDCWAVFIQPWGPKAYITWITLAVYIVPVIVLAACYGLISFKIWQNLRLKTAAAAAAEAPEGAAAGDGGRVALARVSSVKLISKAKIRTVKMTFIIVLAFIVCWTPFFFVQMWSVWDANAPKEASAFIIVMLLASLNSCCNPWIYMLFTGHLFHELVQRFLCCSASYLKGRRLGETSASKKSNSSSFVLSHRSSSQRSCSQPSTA
In short: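 OTR/HEK293 stable cells (20,000 per well) were loaded with Fluo-4 Direct plus probenecid. Cells were pre-exposed to 10-point, 3-fold compound dilutions before agonist challenge at EC80, determined beforehand per cell line. FLIPR calcium fluorescence (Max-Min) was fitted in Prism.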

V1aR = target: T2, V1aR (Homo sapiens, UniProt P37288); assay: Ca2+ mobilization in cells stably expressing V1aR (FLIPR, antagonist mode); format: cell-based; conditions: V1a-CHO stably transfected cell line
T2 construct: expressed in transfected cells; host or cells: V1a-CHO stably transfected cell line
Text: Test Example 2. Determination of the Effect of the Compound of the Present Disclosure on Ca^2+ Mobilization in Cells Stably Expressing V1aR
To measure the antagonistic effect of the compound of the present disclosure on V1aR activity expressed in the V1a-CHO stably transfected cell line.
• F-12 (Hyclone, SH30026.01) • FLIPR CALCIUM 6 ASSAY KIT (Molecul Device, R8191) • Fetal Bovine Serum (FBS) (AusGeneX, FBS500-S) • Hygromycin B (Solarbio, H8080-1g) • DMSO (Sigma, D4540) • HBSS (Gibco 14025-092) • Probenecid (MCE, HY—B0545) • 0.36 mL 96 Round V-bottom Deep Well Plates for Laboratory (Biaosen P-0.36-BSA-96) • 384-well conical bottom polypropylene plate (Nunc, 264573) • Corning® 384-well Flat Clear Bottom Black Polystyrene TC-treated Microplates (Corning 3764)
• Biological safety cabinet (ECSO, AC2-6S1-TC) • Carbon dioxide cell incubator (ECSO, CCI-170B-8) • Inverted microscope (Olympus, CKX53) • Microplate low-speed centrifuge (Xiangzhi, TD5B) • FLIPR® Penta (Molecul Device, 5.0)
• 1. Cell plating: V1a-CHO cells were digested and harvested, resuspended and counted, and then inoculated into a 384-well cell plate at a density of: 1.2×10^4 cells/25 μL/well. The cell plate was then incubated in an incubator at 37° C. with 5% CO2 for about 16-20 h. • 2. The next day: after preparing Assay Buffer, 20× Component A was thawed to room temperature, diluted with Assay buffer to 1× loading buffer, and placed at room temperature for later use. • 3. The medium was removed from the cell plate, and 40 μL of 1× loading buffer was quickly added to each well. After centrifugation, the cell plate was incubated at 37° C. in the dark for 120 minutes. • 4. The serially diluted positive compound, serially diluted test compound, and agonist working solution were formulated. After mixing the serially diluted positive compound/serially diluted test compound with the agonist at a 1:1 ratio, 20 μL per well was transferred to a 384-well compound source plate. • 5. The cell plate, agonist source plate, and pipette tips were placed into their respective positions in the FLIPR instrument. Using FLIPR Tetra, 10 μL of the diluted agonist from Step 4 was added to each test well, and the data were collected at a wavelength of 515 nm-575 nm. • 6. The signal values were plotted against the compound concentrations, and the curve fitting and IC50 calculation were performed using the nonlinear regression method of GraphPad Prism software.

T2 sequence (P37288 whole entry, species assumed): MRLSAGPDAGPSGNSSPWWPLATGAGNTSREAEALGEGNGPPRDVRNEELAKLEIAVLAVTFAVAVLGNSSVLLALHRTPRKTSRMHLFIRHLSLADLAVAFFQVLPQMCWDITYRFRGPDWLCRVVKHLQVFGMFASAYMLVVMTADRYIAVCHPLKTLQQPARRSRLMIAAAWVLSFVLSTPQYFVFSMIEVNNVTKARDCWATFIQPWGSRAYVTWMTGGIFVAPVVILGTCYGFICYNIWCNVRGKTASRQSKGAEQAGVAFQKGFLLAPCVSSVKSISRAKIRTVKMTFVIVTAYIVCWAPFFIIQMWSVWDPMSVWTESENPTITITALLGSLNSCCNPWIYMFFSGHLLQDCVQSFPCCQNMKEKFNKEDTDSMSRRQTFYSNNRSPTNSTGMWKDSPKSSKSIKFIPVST

IC50 (OTR) [nM] | IC50 (V1aR) [nM] | SMILES
13 | 223 | CO/N=C1/C[C@@H](C(C)O)N(C(=O)c2ccc(-c3ccccc3C)cc2)C1 (mixture of isomers) [Example C0067, (S, Z, RS)-(2-(1-Hydroxyethyl)-4-(methoxyimino)pyrrolidin-1-yl)(2′-methyl-[1,1′-biphenyl]-4-yl)methanone]
55.9 | 13200 | CON=C1CC(CO)N(C(=O)c2ccc(-c3cccc(C#N)c3C)c3c2OCO3)C1 (single isomer, unassigned) [Example C0098]
12.6 | 2350 | CO/N=C1/C[C@@H]([C@H](C)O)N(C(=O)c2ccc(-c3cccc(C#N)c3C)cc2)C1 (single isomer, unassigned) [Example C0111]
55.3 | 1560 | CO/N=C1\C[C@@H]([C@@H](C)O)N(C(=O)c2ccc(-c3cccc(C#N)c3C)cc2)C1 (single isomer, unassigned) [Example C0113]
99.8 | 2390 | CO/N=C1/C[C@@H](CO)N(C(=O)c2cnc(-c3cccc(C)c3C)cn2)C1 [Example A0061, (S, Z)-(5-(2,3-Dimethylphenyl)pyrazin-2-yl)(2-(hydroxymethyl)-4-(methoxyimino)pyrrolidin-1-yl)methanone]
13.1 | 5820 | CO/N=C1/C[C@@H](CO)N(C(=O)c2ccc(-c3cccc(C)c3C)c(C(F)F)c2)C1 [Example A0134, (S,Z)-(2-(Difluoromethyl)-2′, 3′-dimethyl-[1,1′-biphenyl]-4-yl)(2-(hydroxymethyl)-4-(methoxyimino)pyrrolidin-1-yl)methanone]
34.4 | 732 | CO/N=C1/C[C@@H](CO)N(C(=O)c2ccc(-c3cccc(C)c3C)c(OCCO)c2)C1 [Example A0148, (S, Z)-(2-(2-Hydroxyethoxy)-2′,3′-dimethyl-[1,1′-biphenyl]-4-yl)(2-(hydroxymethyl)-4-(methoxyimino)pyrrolidin-1-yl)methanone]
119 | 6740 | CO/N=C1/C[C@@H](CO)N(C(=O)c2ccc(-c3cccc(C)c3C)c(C(=O)NC3COC3)c2)C1 [Example A0157, (S, Z)-4-(2-(Hydroxymethyl)-4-(methoxyimino)pyrrolidine-1-carbonyl)-2′, 3′-dimethyl-N-(oxetan-3-yl)-[1,1′-biphenyl]-2-carboxamide]
31.5 | 587 | CO/N=C1/C[C@@H](CO)N(C(=O)c2ccc(-c3cccc(C#N)c3C)c3c2OCCN3C)C1 [Example A0162]
49.8 | 1480 | CO/N=C1/C[C@@H](CO)N(C(=O)c2ccc(-c3cccc(C#N)c3C)c3c2cnn3C)C1 [Example A0167, 3-(4-[(2S,4Z)-2-(Hydroxymethyl)-4-(methoxyimino)pyrrolidine-1-carbonyl]-1-methyl-1H-indazol-7-yl)-2-methylbenzonitrile]
36.1 | 8770 | CO/N=C1/C[C@@H](CO)N(C(=O)c2ccc(-c3cccc(C#N)c3C)c(C#N)c2)C1 [Example A0173, 2-(3-Cyano-2-methylphenyl)-5-[(2S, 4Z)-2-(hydroxymethyl)-4-(methoxyimino)pyrrolidine-1-carbonyl]benzonitrile]
16.8 | 1020 | COCCOc1cc(C(=O)N2C/C(=N\OC)C[C@H]2CO)ccc1-c1cccc(C#N)c1C [Example A0191, (S, Z)-4′-(2-(Hydroxymethyl)-4-(methoxyimino)pyrrolidine-1-carbonyl)-2′-(2-methoxyethoxy)-2-methyl-[1, 1′-biphenyl]-3-carbonitrile]
58.7 | 11200 | CO/N=C1/C[C@@H](CO)N(C(=O)c2ccc(-c3cccc(C#N)c3C)c(OC)n2)C1 [Example A0215, 3-(6-[(2S, 4Z)-2-(Hydroxymethyl)-4-(methoxyimino)pyrrolidine-1-carbonyl]-2-methoxypyridin-3-yl)-2-methylbenzonitrile]
23.2 | 1360 | CO/N=C1/C[C@@H](CO)N(C(=O)c2ccc(-c3cccc(C#N)c3C)c3c2OCCCO3)C1 [Example A0235, (S,Z)-3-(9-(2-(Hydroxymethyl)-4-(methoxyimino)pyrrolidine-1-carbonyl)-3,4-dihydro-2H-benzo[b][1,4]dioxepin-6-yl)-2-methylbenzonitrile]
815 |  | CO/N=C1/C[C@@H](CO)N(C(=O)c2ncc(-c3cccc(C)c3C)s2)C1 [Example C0097, (S, Z)-(5-(2,3-Dimethylphenyl)thiazol-2-yl)(2-(hydroxymethyl)-4-(methoxyimino)pyrrolidin-1-yl)methanone]
1480 |  | CO/N=C1/C[C@@H](CO)N(C(=O)c2ccc(-c3cccc(C)c3C)c(=O)n2C)C1 [Example C0103, (S,Z)-3-(2,3-Dimethylphenyl)-6-(2-(hydroxymethyl)-4-(methoxyimino)pyrrolidine-1-carbonyl)-1-methylpyridin-2(1H)-one]
102 |  | CO/N=C1/C[C@@H](CO)N(C(=O)c2ccc(-c3cccc(C#N)c3C(F)(F)F)cc2)C1 [Example C0127, (S, Z)-4′-(2-(Hydroxymethyl)-4-(methoxyimino)pyrrolidine-1-carbonyl)-2-(trifluoromethyl)-[1,1′-biphenyl]-3-carbonitrile]
7.43 |  | CO/N=C1/C[C@@H](CO)N(C(=O)c2ccc(-c3cccc(C(F)F)c3C)c3c2OCCO3)C1 [Example C0137, (S,Z)-(8-(3-(Difluoromethyl)-2-methylphenyl)-2,3-dihydrobenzo[b][1,4]dioxin-5-yl)(2-(hydroxymethyl)-4-(methoxyimino)pyrrolidin-1-yl)methanone]
40.5 |  | CO/N=C1/C[C@@H](CO)N(C(=O)c2ccc(-c3c(F)ccc(C#N)c3C)c3c2OCO3)C1 [Example C0139, 4-Fluoro-3-(7-((S,Z)-2-(hydroxymethyl)-4-(methoxyimino)pyrrolidine-1-carbonyl)benzo[d][1,3]dioxol-4-yl)-2-methylbenzonitrile]
59.9 |  | CO/N=C1/C[C@@H](CO)N(C(=O)c2ccc(-c3cc(F)cc(C#N)c3C)c3c2OCO3)C1 [Example C0144, (S,Z)-5-Fluoro-3-(7-(2-(hydroxymethyl)-4-(methoxyimino)pyrrolidine-1-carbonyl)benzo[d][1,3]dioxol-4-yl)-2-methylbenzonitrile]
228 |  | CO/N=C1/C[C@@H](CO)N(C(=O)c2ccc3c(c2)OCCc2c(C#N)cccc2-3)C1 [Example C0146, (S, Z)-3-(2-(Hydroxymethyl)-4-(methoxyimino)pyrrolidine-1-carbonyl)-6,7-dihydrodibenzo[b,d]oxepine-8-carbonitrile]
158 |  | CO/N=C1\C[C@@H](CO)N(C(=O)c2ccc(-c3ccc(F)c(C#N)c3C)c3c2OCCO3)C1 [Example C0148, (S,E)-6-Fluoro-3-(8-(2-(hydroxymethyl)-4-(methoxyimino)pyrrolidine-1-carbonyl)-2,3-dihydrobenzo[b][1,4]dioxin-5-yl)-2-methylbenzonitrile]
73.6 |  | CO/N=C1\C[C@@H](CO)N(C(=O)c2ccc(-c3cccc(C#N)c3C)cc2F)C1 [Example C0156, (S,E)-3′-Fluoro-4′-(2-(hydroxymethyl)-4-(methoxyimino)pyrrolidine-1-carbonyl)-2-methyl-[1,1′-biphenyl]-3-carbonitrile]
72 |  | CO/N=C1\C[C@@H](C(C)(C)O)N(C(=O)c2ccc(-c3cccc(C#N)c3C)cc2)C1 [Example C0163, (S,E)-4′-(2-(2-Hydroxypropan-2-yl)-4-(methoxyimino)pyrrolidine-1-carbonyl)-2-methyl-[1,1′-biphenyl]-3-carbonitrile]
